# Experimental data as given in patent US20070053984A1, “Topical gels compositions” (priority 2005, published 2007).
# Where two headings read alike, the source gives them in different places.
# Tests used:
# [1] = system: skin of minipigs; test: C14-labeled compositions applied to skin of minipigs, punch biopsies and serum samples; conditions: 15% in 60% alcohol, 1% ULTREZ 10, 24% water; for Diffusion Rate (1 = high, 5 = low): 0.2 gm per cm^2 skin, biopsies 30 seconds to 24 hours; for Systemic Levels (1 = high, 5 = low): serum samples
# [2] = system: pseudofolliculitis barbae (PFB); test: 10-week double blind, placebo-controlled, cross-over clinical trial in PFB; type: in vivo, human; conditions: 15% in 60% alcohol, 1% ULTREZ 10, 24% water; PFB subjects
# Description: PFB efficacy is examined by a 10-week double blind, placebo-controlled, cross-over clinical trial. […] Papules, pustules, and ingrown hairs as defined below are counted and recorded. The primary objectives of this study are: • To determine the efficacy of various NSAID compositions applied at various intervals ranging from every other day to twice per day for five weeks in reducing the signs and symptoms of PFB; and • To determine the safety and tolerability of the various NSAID compositions. Papules, pustules, and ingrown hairs as defined below are counted and recorded. Lesions are counted on the neck, lower left and right cheeks, and jaw line (beard area). The same qualified physician completes the assessment at each visit. Each assessment is performed independent of previous assessments. Subjects have a total of at least 10 (for moderate) of 2 (for mild) follicular papules, pustules, or ingrown hairs at the Baseline Visit to be admitted to the study. Inflammatory and/or nodulocystic lesions, erythema, and hyperpigmentation are assessed according to the following six-point Likert (categorical) scale: • 0 None: […] Rare noninflammatory lesions present (lesions must be resolving and may be hyperpigmented, though not pink/red). Barely perceptible elevation (discernable by touch only). • 2 Mild: Noninflammatory lesions predominate, with few inflammatory papules/pustules. Light red color. Visible but mild elevation. No nodulocystic lesions. • 3 Moderate: Some noninflammatory lesions are present with multiple inflammatory lesions evident. Definite lesion redness and elevation. There may or may not be one small nodulocystic lesion. • 4 Severe: Highly inflammatory lesions predominate. Deep intense red color. Marked dermal swelling and in duration in widespread areas. There may or may not be a few nodulocystic lesions. • 5 Very Severe: Many nodulocystic lesions. Results are recorded in the source document and on the appropriate CRF. The same qualified physician will complete the assessment at each visit. Each assessment should be performed independent of previous assessments. Subjects must have a rating of at least moderate (3) at the Baseline Visit to be admitted to the study. All subjects are asked to evaluate specific PFB symptoms of itch, pain, and shaving discomfort, as well as the overall condition of their PFB at the Baseline, and weekly thereafter (“Subject's Assessment of Symptoms”). […] Global Assessment of Improvement. Subjects are asked to compare the overall condition of their PFB at the week 2, 4, and 6 visits with the overall condition before treatment using the following five-point Likert (categorical) scale: • 2 Overall condition and shaving comfort much better than before treatment. • 1 Overall condition and shaving comfort slightly better than before treatment. • 0 Overall condition and shaving comfort unchanged, same as before treatment. • −1 Overall condition and shaving comfort slightly worse than before treatment. • […] than before treatment. Each assessment is performed independent of previous assessments. The prodrug compositions are tested on PFB subjects according to Example 22 including pharmacokinetic analysis.
# [3] = system: skin of minipigs; conditions: minipig, in vivo
# [4] = Prodrug (ibuprofen ethyl ester) generation upon storage, HPLC; type: physicochemical; conditions: compositions similar to 1a, presence or absence of salicylic acid
# Protocol: It has been discovered that, in one embodiment, compositions of the present invention, upon storage, result in the generation of a prodrug form of the active ingredient. Such prodrug formation results from reaction of a carboxylic acid group of the active drug with the alcoholic solvent to form an ester linkage.
# HPLC analysis was performed on composition la stored for 3 months at 25° C. A new peak (i.e., the prodrug) distinct from the ibuprofen peak was detected within the chromatographic profile.
# Next, two grams of composition 1a were diluted in twenty-five milliliters of 50:50) water:acetonitrile. The solution was centrifuged and the supernatant collected or analysis.
# Chromatography was conducted as follows: • Pumps: Hewlett Packard Model 1100 Binary Systems • Solvent A: Water • Solvent B: Acetonitrile • Gradient: Start 40% B • Raise to 60% B at 20 minutes • Raise to 90% B at 40 minutes • Flow Rate: 1.0 ml/min • Stationary Phase ZORBAX® CS (4.6×150 mm) • Column Temperature: 25 C • Injection volume […]
# Sequential detection was performed by UV absorbance using an HP diode array detector followed by ESI-MS […] a Sciex QSTAR®/Pulsar quadrupole-TOF mass spectrometer operating in either the positive and negative ion modes.
Molecule,"Diffusion Rate (1 = high, 5 = low) [1]","Systemic Levels (1 = high, 5 = low) [1]","Diffusion Rate (1 = high, 5 = low) [3]","Systemic Levels (1 = high, 5 = low) [3]",effect on rate of prodrug formation [4],"Efficacy (1 = high, 5 = low) [2]"
CC(C)Cc1ccc(C(C)C(=O)OC(C)C)cc1 (stereo not drawn) [ibuprofen isopropyl ester],1,5,–,–,–,1
CCOC(=O)C(C)c1cccc(C(=O)c2ccccc2)c1 (stereo not drawn) [ketoprofen ethylester],–,–,3,3,–,3
ethylisobutylphenyl-propionate [ibuprofen ethylester],2,4,–,–,–,2

# Further lines, with some results ahead:
"Diffusion Rate (1 = high, 5 = low) [1]","Systemic Levels (1 = high, 5 = low) [1]","Diffusion Rate (1 = high, 5 = low) [3]","Systemic Levels (1 = high, 5 = low) [3]",effect on rate of prodrug formation [4],Molecule,"Efficacy (1 = high, 5 = low) [2]"
3,3,–,–,–,CC(C)OC(=O)C(C)c1cccc(C(=O)c2ccccc2)c1 (stereo not drawn) [ketoprofen isopropyl ester],3
–,2,–,–,–,"CC(C(=O)O)c1cccc(C(=O)c2ccccc2)c1 (stereo not drawn) [ketoprofen, reference compound]",5
–,–,–,–,increases the rate of prodrug formation,O=C(O)c1ccccc1O [salicylic acid],–
